System: SARS2 replicon
Assay: microbe, parasite or virus in culture
Assay type: cell-based, SARS-CoV-2
Details: Severe acute respiratory syndrome coronavirus 2, HEK-293T, 24 hr, read-out: inhibition of fLuc

**Q.** For CCC(CC)COC(=O)[C@H](C)N[P@](=O)(OC[C@H]1O[C@@](C#N)(c2ccc3c(N)ncnn23)[C@H](O)[C@@H]1O)Oc1ccccc1 [Remdesivir], which inhibition at 10 µM is on record?
**A.** Its inhibition at 10 µM is 70%.
